What was measured:
[1] = system: writhing response induced by bradykinin in mice; test: Bradykinin-induced Writhing in Mice; format: in vivo, mice (male CD-1)
Procedure: Protocol for Bradykinin-induced Writhing in Mice
The purpose of this assay is to determine the ability of test drugs to inhibit the writhing response induced by bradykinin in mice. This test is a primary in vivo screen for bradykinin antagonist analgesics.
Groups of 10 mice each (male CD-1 mice (14-19 g) from Charles River, Kingston, NY, fasted overnight prior to experiment, but having free access to water) are used. Each mouse receives an intraperitoneal injection of 1 mg/kg PGE2 (0.1 mL/10 g body weight) followed 20 minutes later by an i.p. injection of bradykinin 0.5 mg/kg. The number of writhes per mouse is determined for 2 minutes after bradykinin injection. For a primary screen, drugs are administered orally at 20 mg/kg 1 hour prior to the bradykinin.
The percent inhibition of writhing obtained is calculated as follows: [formula]
Several logarithmically spaced doses are tested and the ED50 (dose which inhibits the writhing response by 50%) is determined by regression methods with inverse prediction.
The test results are reported in the TABLE below under the heading BK Induced Writhing in Mice.

[2] = system: bradykinin-induced hyperalgesia (pain threshold) in rats; test: Bradykinin-induced Hyperalgesia in Rats; format: in vivo, rats (female Sprague Dawley); conditions: 100 mg/kg p.o.
Procedure: Protocol for Bradykinin-induced Hyperalgesia in Rats
The purpose of this assay is to evaluate analgesic activity of bradykinin antagonists in an inflammatory pain model in rats.
Animals (female Sprague Dawley rats (Charles River, Kingston, NY) 80-115 gms) are fasted overnight, with water given ad lib, if the compounds are to be administered orally. Ten rats are used per test group and six per normal group.
Test compounds are suspended in 0.5% Tween 80 in distilled water, and are administered orally 1 hour (or i.p. 5 minutes) prior to the injection of bradykinin.
The animals are randomized prior to drug administration in order to make the study blind. Bradykinin is injected, as the phlogistic agent, into the subplantar region of the right hindpaw of the rats, in a 0.01 mg/0.1 mL saline solution. The pain threshold is measured 1 minute later using a modification of the Randall-Selitto method, [Randall, et al., Archives International Pharmacodynamics, VIII N4, p 409-419 (1957)].
Animals are placed in a horizontal position with a hindpaw hanging down on the apparatus. The teflon point is placed on the foot pad and a steady pressure is applied, using a foot pedal. The endpoint is determined when the rat emits a squeak or forcefully attempts to remove its paw from the apparatus. […]
Drug effects are expressed as a percent change in pain threshold from bradykinin control values. […]

[3] = molecular target: T1, BK2 receptor sites in guinea pig ileum (Cavia porcellus, UniProt O70526); test: Bradykinin Receptor Binding Assay (3H-BK Binding, G. P. Ileum); parameters: species or system guinea pig (Hartley strain); conditions: 80 pM 3H-BK
T1 construct: The distal portion of the ileum is removed and placed in ice cold homogenization buffer; from tissue; host or cells: distal ileum of adult male Hartley guinea pigs (animals from Charles River), washed membrane homogenate
T1 sequence (O70526 1-372): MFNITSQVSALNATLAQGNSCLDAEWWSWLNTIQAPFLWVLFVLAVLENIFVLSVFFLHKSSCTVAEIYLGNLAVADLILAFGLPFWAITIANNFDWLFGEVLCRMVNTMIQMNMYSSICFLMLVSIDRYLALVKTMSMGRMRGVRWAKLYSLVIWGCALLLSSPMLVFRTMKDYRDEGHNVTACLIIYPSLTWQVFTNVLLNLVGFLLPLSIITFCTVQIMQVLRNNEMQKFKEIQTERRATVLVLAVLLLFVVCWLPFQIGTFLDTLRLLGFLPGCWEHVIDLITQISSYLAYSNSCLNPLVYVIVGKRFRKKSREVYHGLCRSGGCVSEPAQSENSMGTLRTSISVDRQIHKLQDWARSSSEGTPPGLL
Procedure: Protocol for Bradykinin Receptor Binding Assay
The purpose of this assay is to identify compounds which compete specifically with tritiated bradykinin (^3 H--BK) for BK2 receptor sites in guinea pig ileum.
The guinea pig (adult male Hartley strain, 350-500 g, Charles River) is euthanized by stunning followed by decapitation. The distal portion of the ileum is removed and placed in ice cold homogenization buffer (25 mM N-[tris(hydroxymethyl)methyl]-2-aminoethanesulfonic acid (TES), 1 mM 1,10-phenanthroline, adjusted to pH 6.8 with NH4 OH). The contents of the ileal lumen are rinsed out with cold homogenization buffer. The tissue is cut into small pieces and homogenized in 20 volumes of homogenization buffer.
The homogenate is filtered through a surgical gauze sponge and centrifuged at 50,000×g for 20 minutes at 4° C. The supernatant fluid is discarded and the homogenization and centrifugation procedure is repeated. After discarding the supernatant fluid, the final pellet is resuspended in 40 volumes of assay buffer (25 mM TES, pH=6.8, 1 mM 1,10-phenanthroline, 1 mM (2RS, 3RS)-1,4-dimercapto-2,3-butanediol (Cleland's reagent), 2 μM captopril, 140 μg/mL bacitracin and 0.1% bovine serum albumin (BSA)). The homogenate is filtered once more through a surgical gauze sponge and kept on ice until use.
The assay is performed using only polypropylene pipet tips and polypropylene test tubes. Each tube receives 100 μL of 800 pM ^3 H--BK, 100 μL of the test compound solution or vehicle (TES assay buffer), and 100 μL of 25 mg/mL tissue homogenate in a total volume of 1 mL. The final concentration of ^3 H--BK is 80 pM. The final tissue concentration is 2.5 mg/mL. Compounds are screened at 100 μM or 10 μM. Nonspecific binding is determined in the presence of 1 μM unlabeled bradykinin. All determinations are made in triplicate. Three 100 μL aliquots of the 800 pM ^3 H--BK working solution are added directly to scintillation vials to determine the total added radioactivity.
The tubes are incubated for 90 minutes at 25° C. while being gently agitated on an orbital shaker. Bound ligand is separated from free ligand, using Whatman GF/B glass fiber filters (pretreated with 0.1% aqueous polyethyleneimine made neutral with HCl). Assay tubes and glass fiber filters are rinsed three times with 3 mL of cold physiological saline.
The filter discs are transferred to 20 mL scintillation vials. Ten mL of aqueous sample LSC cocktail (Aquassure, New England Nuclear) is added to each vial. After capping, the vials are agitated for 5 minutes on an orbital shaker. The samples are counted for ten minutes in a refrigerated liquid scintillation counter.
The following values are obtained:
Bns : Nonspecific binding
Bx : Total binding in the presence of the test compound
C: Control specific binding C=Bt -Bns
D: Specific binding in the presence of the test compound D=Bx -Bns
Percent of Control: D/C×100
Percent Inhibition: (1-D/C)×100
After calculation of Percent of Control for each dilution, the values are analyzed and the IC50 with its 95% confidence limits is determined on a Hewlett Packard 9816 computer using the program "PS-NONLIN" (generalizednon-linear regression with inverse prediction and graphics).
The test results are reported in the TABLE below under the heading 3H--BK Binding, G. P. Ileum.

Compound | inhibition at 10 µM [3] [%] | further results
O=C(NC1CCN(Cc2ccccc2)CC1)c1ccc(OCc2ccnc3ccccc23)cc1 [Example 1, N-[1-(Phenylmethyl)-4-piperidinyl]-4-(4-quinolinylmethoxy)benzamide] |  | BK Induced Writhing in Mice, % inhibition ([1]; 30 mg/kg i.p.): 40.0%; BK Induced Writhing in Mice, % inhibition ([1]; 300 mg/kg p.o.): 52.0%; increase of BK induced pain threshold in rats [2]: 44.8%; IC50 [3]: 9.1 µM; inhibition at 100 µM [3]: 98.8%
O=C(NC1CCN(Cc2ccccc2)CC1)c1ccc(OCc2ccc3ccccc3n2)cc1 [Example 2, N-[1-(Phenylmethyl)-4-piperidinyl]-4-(2-quinolinylmethoxy)benzamide] |  | BK Induced Writhing in Mice, % inhibition ([1]; 30 mg/kg i.p.): 40.0%; BK Induced Writhing in Mice, % inhibition ([1]; 100 mg/kg p.o.): 32.0%; BK Induced Writhing in Mice, % inhibition ([1]; 200 mg/kg p.o.): 22.5%; IC50 [3]: 33.6 µM; inhibition at 100 µM [3]: 93.8%
CCCCN1CCC(NC(=O)c2ccc(OCc3ccnc4ccccc34)cc2)CC1 [Example 3, N-(1-Butyl-4-piperidinyl)-4-(4-quinolinylmethoxy)benzamide] | 15.2 | 
CCCCN1CCC(NC(=O)c2ccc(OCc3ccc4ccccc4n3)cc2)CC1 [Example 4, N-(1-Butyl-4-piperidinyl)-4-(2-quinolinylmethoxy)benzamide] | 10.4 | 
O=C(NC1CCN(Cc2ccccc2)CC1)c1cccc(OCc2ccnc3ccccc23)c1 [Example 5, N-[1-(Phenylmethyl)-4-piperidinyl]-3-(4-quinolinylmethoxy)benzamide] | 63.8 | BK Induced Writhing in Mice, % inhibition ([1]; 30 mg/kg i.p.): 31.0%; BK Induced Writhing in Mice, % inhibition ([1]; 200 mg/kg p.o.): 22.0%; IC50 [3]: 7.3 µM
O=C(NC1CCN(Cc2ccccc2)CC1)c1ccccc1OCc1ccnc2ccccc12 [Example 6, N-[1-(Phenylmethyl)-4-piperidinyl]-2-(4-quinolinylmethoxy)benzamide] | 17.3 | 
O=C(NC1CCN(Cc2ccccc2)CC1)c1cccc(OCc2ccc3ccccc3n2)c1 [Example 7, N-[1-(Phenylmethyl)-4-piperidinyl]-3-(2-quinolinylmethoxy)benzamide] | 43.2 | 
O=C(NC1CCN(Cc2ccccc2)CC1)c1ccccc1OCc1ccc2ccccc2n1 [Example 8, N-[1-(Phenylmethyl)-4-piperidinyl]-2-(2-quinolinylmethoxy)benzamide] | 8.4 | 
CCCCN1CCC(NC(=O)c2cccc(OCc3ccnc4ccccc34)c2)CC1 [Example 9, N-(1-Butyl-4-piperidinyl)-3-(4-quinolinylmethoxy)benzamide] | 21.4 | 
O=C(NC1CCN(Cc2ccccc2)CC1)c1ccc(OCc2cccc3ccccc23)cc1 [Example 10, N-[1-(Phenylmethyl)-4-piperidinyl]-4-(1-naphthalenylmethoxy)benzamide] | 8.6 | 
CCCCN1CCC(NC(=O)c2ccc(OCc3cccc4ccccc34)cc2)CC1 [Example 11, N-(1-Butyl-4-piperidinyl)-4-(1-naphthalenylmethoxy)benzamide] | 11.1 | 
O=C(NC1CCN(Cc2ccccc2)CC1)c1ccc(/C=C/c2ccnc3ccccc23)cc1 [Example 12, (E)-N-[1-(Phenylmethyl)-4-piperidinyl]-4-[2-(4-quinolinyl)ethenyl]benzamide] | 78.7 | BK Induced Writhing in Mice, % inhibition ([1]; 30 mg/kg i.p.): 10.0%
O=C(NC1CCN(Cc2ccccc2)CC1)c1ccc(/C=C\c2ccnc3ccccc23)cc1 [Example 13, (Z)-N-[1-(Phenylmethyl)-4-piperidinyl]-4-[2-(4-quinolinyl)ethenyl]benzamide] | 35.8 | 
O=C(NC1CCN(Cc2ccccc2)CC1)c1ccc(OCc2cc[n+]([O-])c3ccccc23)cc1 [Example 14, N-[1-(Phenylmethyl)-4-piperidinyl]-4-(4-quinolinylmethoxy)benzamide N-Oxide] | 30.2 | 
CCN(CC)C(=O)c1ccc(CN2CCC(NC(=O)c3ccc(OCc4ccnc5ccccc45)cc3)CC2)cc1 [Example 15, N-[1-[[4-[(Diethylamino)carbonyl]phenyl]methyl]-4-piperidinyl]-4-(4-quinolinylmethoxy)benzamide] | 30.2 | 
c1ccc(CN2CCC(NCc3ccc(OCc4ccnc5ccccc45)cc3)CC2)cc1 [Example 16, 1-(Phenylmethyl)-N-[[4-(4-quinolinylmethoxy)phenyl]methyl]-4-piperidinamine] | 27.4 | 
CCCC(=O)N(Cc1ccc(OCc2ccnc3ccccc23)cc1)C1CCN(Cc2ccccc2)CC1 [Example 17, N-[1-(Phenylmethyl)-4-piperidinyl]-N-[[4-(4-quinolinylmethoxy)phenyl]methyl]butanamide] | 25.3 | 
O=C(NC1CCN(Cc2ccccc2)CC1)c1ccc(NCc2ccnc3ccccc23)cc1 [Example 18, N-[1-(Phenylmethyl)-4-piperidinyl]-4-[(4-quinolinylmethyl)amino]benzamide] | 8.1 | 
CCCCN1CCC(NC(=O)c2ccc(NCc3ccnc4ccccc34)cc2)CC1 [Example 19, N-(1-Butyl-4-piperidinyl)-4-[(4-quinolinylmethyl)amino]benzamide] | 32.8 | 

From US5212182A, “Substituted quinolinyl- and naphthalenylbenzamides or benzylamines and related compounds useful as analgesics” (American Home Products Corpooration, priority 1990, dated 1993)
